Patent publication US20240398805A1, “QUINAZOLINE DERIVED COMPOUNDS AS EGFR INHIBITORS AND THEIR USES THEREOF” (ACCUTAR BIOTECHNOLOGY INC., priority 2021, published 2024)

How the values were obtained:
Assay type in all cases: cell-based
[1] = tested on: HCC827-SVD cells (human EGFR exon 20 insertion mutant D770_N771 insSVD); test: Cell growth inhibition (CellTiter-Glo, 3 days) in HCC827-SVD; settings: 72 h, 3 days after administration
Outline: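 HCC827 cells carrying lentiviral codon-optimized EGFR D770_N771 insSVD, with endogenous EGFR knocked out by CRISPR (single clone), seeded at 5000 cells/well in RPMI with 10% FBS. Viability read by CellTiter-Glo luminescence.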

[2] = tested on: HCC827-YVMA cells (human ERBB2 exon20 insertion mutant A775_G776ins YVMA); test: Cell growth inhibition (CellTiter-Glo, 3 days) in HCC827-YVMA; settings: 72 h, 3 days after administration
Outline: (§1)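 Growth inhibition used a CellTiter-Glo luminescence read-out after 3 days of compound exposure at various concentrations. Cells were plated the day before at 5000/well in RPMI plus 10% FBS. The lines are HCC827 transduced by lentivirus with codon-optimized EGFR ASV or ERBB2 YVMA exon 20 insertions.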

A431 cells = test: Cell growth inhibition (CellTiter-Glo, 3 days) in A431; settings: Homo sapiens, A-431, 72 h, 3 days after administration
Outline: (§2)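 HCC827 cells were plated at 5000 cells/well in RPMI with 10% FBS, and A431 cells at the same density in DMEM with 10% FBS. After overnight attachment, compounds were added at various concentrations. Luminescence was recorded after plates were equilibrated to room temperature and incubated 10 min with reagent.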

HCC827 cells = test: Cell growth inhibition (CellTiter-Glo, 3 days) in HCC827; settings: Homo sapiens, 72 h, 3 days after administration
Outline: as §2

[3] = tested on: HCC827-ASV cells (human EGFR exon 20 insertion mutant A769_D770insASV); test: Cell growth inhibition (CellTiter-Glo, 3 days) in HCC827-ASV; settings: 72 h, 3 days after administration
Outline: as §1

Compound | GI50 [1] [nM] | GI50 [2] [nM] | GI50 (A431 cells) [nM] | GI50 (HCC827 cells) [nM] | GI50 [3] [nM]
C=CC(=O)N1CCC(Nc2cc3c(Nc4ccc(Oc5ccnc(-c6ccc(C)nc6)c5)cc4F)ncnc3cc2OC)CC1 [Example 27, 1-(4-((4-((2-fluoro-4-((6′-methyl-[2,3′-bipyridin]-4-yl)oxy)phenyl)amino)-7-methoxyquinazolin-6-yl)amino)piperidin-1-yl)prop-2-en-1-one] | 60 to 100 | 60 to 100 | ≥ 1000 | 100 to 300 | 30 to 60
C=CC(=O)N1CCC(Nc2cc3c(Nc4ccc(Oc5nc(-c6ccnn6C)cs5)cc4F)ncnc3cc2OC)CC1 [Example 26, 1-(4-((4-((2-fluoro-4-((4-(1-methyl-1H-pyrazol-5-yl)thiazol-2-yl)oxy)phenyl)amino)-7-methoxyquinazolin-6-yl)amino)piperidin-1-yl)prop-2-en-1-one] | 30 to 60 | 30 to 60 | 100 to 300 | 60 to 100 | 30 to 60
C=CC(=O)N1CCC(Nc2cc3c(Nc4ccc(Oc5ccnc(N6CC[C@H](CO)C6)c5)cc4F)ncnc3cc2OC)CC1 [Example 250, (S)-1-(4-((4-((2-fluoro-4-((2-(3-(hydroxymethyl)pyrrolidin-1-yl)pyridin-4-yl)oxy)phenyl)amino)-7-methoxyquinazolin-6-yl)amino)piperidin-1-yl)prop-2-en-1-one] | < 30 | < 30 | ≥ 1000 | 100 to 300 | < 30
C=CC(=O)N1CCC(Nc2cc3c(Nc4ccc(Oc5ccnc(N6CC[C@@H](C#N)C6)c5)cc4F)ncnc3cc2OC)CC1 [Example 258, (R)-1-(4-(4-((6-((1-acryloylpiperidin-4-yl)amino)-7-methoxyquinazolin-4-yl)amino)-3-fluorophenoxy)pyridin-2-yl)pyrrolidine-3-carbonitrile] | < 30 | < 30 | 600 to 1000 | 60 to 100 | < 30
C=CC(=O)N1CCC(Nc2cc3c(Nc4ccc(Oc5ccnc(N6CC[C@@H](OC)C6)c5)cc4F)ncnc3cc2OC)CC1 [Example 114, (R)-1-(4-((4-((2-fluoro-4-((2-(3-methoxypyrrolidin-1-yl)pyridin-4-yl)oxy)phenyl)amino)-7-methoxyquinazolin-6-yl)amino)piperidin-1-yl)prop-2-en-1-one] | 100 to 300 | 100 to 300 | ≥ 1000 | 300 to 600 | 60 to 100
C=CC(=O)N1CCC(Nc2cc3c(Nc4ccc(Oc5ccnc(N6CCN(C)CC6)c5)c(Cl)c4)ncnc3cc2OC)CC1 [Example 228, 1-(4-((4-((3-chloro-4-((2-(4-methylpiperazin-1-yl)pyridin-4-yl)oxy)phenyl)amino)-7-methoxyquinazolin-6-yl)amino)piperidin-1-yl)prop-2-en-1-one] | 100 to 300 | 60 to 100 | ≥ 1000 | 300 to 600 | 60 to 100
C=CC(=O)N1CCC(Nc2cc3c(Nc4ccc(Oc5ccnc(-c6cncs6)c5)cc4F)ncnc3cc2OC)CC1 [Example 42, 1-(4-((4-((2-fluoro-4-((2-(thiazol-5-yl)pyridin-4-yl)oxy)phenyl)amino)-7-methoxyquinazolin-6-yl)amino)piperidin-1-yl)prop-2-en-1-one] | 600 to 1000 | 600 to 1000 | ≥ 1000 | ≥ 1000 | 300 to 600
C=CC(=O)N1CCC(Nc2cc3c(Nc4ccc(Oc5ccnc(C(=O)NC(C)(C)C)c5)cc4F)ncnc3cc2OC)CC1 [Compound 167, 4-(4-((6-((1-acryloylpiperidin-4-yl)amino)-7-methoxyquinazolin-4-yl)amino)-3-fluorophenoxy)-N-(tert-butyl)picolinamide] | 60 to 100 | 60 to 100 | 600 to 1000 | < 30 | 30 to 60
C=CC(=O)N1CCC(Nc2cc3c(Nc4ccc(Oc5ccnc(N6CCC(C)(F)C6)c5)cc4F)ncnc3cc2OC)CC1 (centres unmarked) [Example 265, 1-(4-((4-((2-fluoro-4-((2-(3-fluoro-3-methylpyrrolidin-1-yl)pyridin-4-yl)oxy)phenyl)amino)-7-methoxyquinazolin-6-yl)amino)piperidin-1-yl)prop-2-en-1-one] | < 30 | < 30 | 100 to 300 | 30 to 60 | < 30
C=CC(=O)N1CCC(Nc2cc3c(Nc4ccc(Oc5ccn(-c6ccc(OC)cn6)n5)cc4F)ncnc3cc2OC)CC1 [Example 59, 1-(4-((4-((2-fluoro-4-((1-(5-methoxypyridin-2-yl)-1H-pyrazol-3-yl)oxy)phenyl)amino)-7-methoxyquinazolin-6-yl)amino)piperidin-1-yl)prop-2-en-1-one] | 60 to 100 | 30 to 60 | 100 to 300 | 60 to 100 | 30 to 60
C=CC(=O)N1CCC(Nc2cc3c(Nc4ccc(Oc5ccn(-c6cnc(C)nc6)n5)cc4F)ncnc3cc2OC)CC1 [Example 92, 1-(4-((4-((2-fluoro-4-((1-(2-methylpyrimidin-5-yl)-1H-pyrazol-3-yl)oxy)phenyl)amino)-7-methoxyquinazolin-6-yl)amino)piperidin-1-yl)prop-2-en-1-one] | < 30 | < 30 | 100 to 300 | 60 to 100 | < 30
C=CC(=O)N1CCC(Nc2cc3c(Nc4ccc(Oc5ccnc(N6CCN(C)C(=O)C6)c5)cc4F)ncnc3cc2OC)CC1 [Example 223, 4-(4-(4-((6-((1-acryloylpiperidin-4-yl)amino)-7-methoxyquinazolin-4-yl)amino)-3-fluorophenoxy)pyridin-2-yl)-1-methylpiperazin-2-one] | 100 to 300 | 100 to 300 | 600 to 1000 | 300 to 600 | 100 to 300
C=CC(=O)N1CCC(Nc2cc3c(Nc4ccc(Oc5ccnc(N6CCN(C)CC6)c5)cc4F)ncnc3cc2OC)CC1 [Example 113, 1-(4-((4-((2-fluoro-4-((2-(4-methylpiperazin-1-yl)pyridin-4-yl)oxy)phenyl)amino)-7-methoxyquinazolin-6-yl)amino)piperidin-1-yl)prop-2-en-1-one] | < 30 | < 30 | 600 to 1000 | 30 to 60 | < 30
C=CC(=O)N1CCC(Nc2cc3c(Nc4ccc(Oc5nc(-c6cnc(OC)nc6)cs5)cc4F)ncnc3cc2OC)CC1 [Example 53, 1-(4-((4-((2-fluoro-4-((4-(2-methoxypyrimidin-5-yl)thiazol-2-yl)oxy)phenyl)amino)-7-methoxyquinazolin-6-yl)amino)piperidin-1-yl)prop-2-en-1-one] | < 30 | < 30 | 100 to 300 | 30 to 60 | < 30
C=CC(=O)N1CCC(Nc2cc3c(Nc4ccc(Oc5ccnc(N6CC(OC)C6)c5)cc4F)ncnc3cc2OC)CC1 [Example 119, 1-(4-((4-((2-fluoro-4-((2-(3-methoxyazetidin-1-yl)pyridin-4-yl)oxy)phenyl)amino)-7-methoxyquinazolin-6-yl)amino)piperidin-1-yl)prop-2-en-1-one] | 100 to 300 | 100 to 300 | 100 to 300 | 300 to 600 | 60 to 100
C=CC(=O)N1CCC(Nc2cc3c(Nc4ccc(Oc5ccnc(N6CCC[C@@H](OC)C6)c5)cc4)ncnc3cc2OC)CC1 [Example 230, (R)-1-(4-((7-methoxy-4-((4-((2-(3-methoxypiperidin-1-yl)pyridin-4-yl)oxy)phenyl)amino)quinazolin-6-yl)amino)piperidin-1-yl)prop-2-en-1-one] | 30 to 60 | < 30 | ≥ 1000 | 300 to 600 | < 30
C=CC(=O)N1CCC(Nc2cc3c(Nc4ccc(Oc5ccnc(N6CC[C@H](C#N)C6)c5)cc4F)ncnc3cc2OC)CC1 [Example 259, (S)-1-(4-(4-((6-((1-acryloylpiperidin-4-yl)amino)-7-methoxyquinazolin-4-yl)amino)-3-fluorophenoxy)pyridin-2-yl)pyrrolidine-3-carbonitrile] | < 30 | < 30 | ≥ 1000 | 60 to 100 | < 30
C=CC(=O)N1CCC(Nc2cc3c(Nc4ccc(Oc5ccnc(-c6nccs6)c5)cc4F)ncnc3cc2OC)CC1 [Example 43, 1-(4-((4-((2-fluoro-4-((2-(thiazol-2-yl)pyridin-4-yl)oxy)phenyl)amino)-7-methoxyquinazolin-6-yl)amino)piperidin-1-yl)prop-2-en-1-one] | < 30 | < 30 | 300 to 600 | 60 to 100 | < 30
C=CC(=O)N1CCC(Nc2cc3c(Nc4ccc(Oc5ccn(-c6nc(OC)nc(OC)n6)n5)cc4F)ncnc3cc2OC)CC1 [Compound 31, 1-(4-((4-((4-((1-(4,6-dimethoxy-1,3,5-triazin-2-yl)-1H-pyrazol-3-yl)oxy)-2-fluorophenyl)amino)-7-methoxyquinazolin-6-yl)amino)piperidin-1-yl)prop-2-en-1-one] | 30 to 60 | < 30 | < 30 | < 30 | 30 to 60
